Some test systems named below: P388 leukemia; DMS 114 small cell lung; DMS 273 small cell lung; DLD-1 colon; KM20L2 colon; XF 498 CNS; M19-MEL melanoma; SN12K1 renal; SNB-78 CNS; RXF-631 renal; LXFL 529 NSCLC.
Holding throughout (assay): NCI tumour cell line growth inhibition, 48 h

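Exposure lasted 48 hours, with cells grown in 96-well plates and compounds tested at five concentrations. At the TGI there is no net growth.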

On to `CC(C)Cc1ccc(C(C)C(=O)N2CCN(/C=C/c3ccccc3)CC2)cc1` (stereo not given), for which the TGI stood at 29.8 µM with P388 leukemia; 24.6 µM in the assay on DMS 114 small cell lung; 24.2 µM in the assay with DMS 273 small cell lung; 27.3 µM in the assay with DLD-1 colon; 29.9 µM in the assay with KM20L2 colon; 27.3 µM with XF 498 CNS. The TGI was 29.7 µM in the assay on M19-MEL melanoma, 27.1 µM with SN12K1 renal and 46.7 µM with SNB-78 CNS.
In the case of `COc1cc2c(cc1OC)C(CC1=C(c3ccccc3)CN3CCc4cc(OC)c(OC)cc4C3C1)NCC2` (stereo not given), the TGI stood at 30.4 µM with RXF-631 renal; 30.3 µM in the assay with DMS 114 small cell lung; 31.6 µM in the assay on DMS 273 small cell lung; 31.1 µM in the assay with LXFL 529 NSCLC; 34.9 µM in the assay with DLD-1 colon; 28.9 µM in the assay on KM20L2 colon. Besides, the values for the TGI in the assay on XF 498 CNS, in the assay on M19-MEL melanoma and in the assay on SNB-78 CNS were 25.9 µM, 30.7 µM and 31.9 µM, respectively.
On to `CCCC(=O)OCC1OC(n2ccc(N)nc2=O)C(OC(=O)CCC)C1OC(=O)CCC` (stereo not given), for which the TGI is 13.9 µM in the assay on P388 leukemia; over 100 µM with DMS 114 small cell lung; over 100 µM in the assay on DMS 273 small cell lung; over 100 µM in the assay on DLD-1 colon; over 100 µM in the assay with KM20L2 colon; over 100 µM with M19-MEL melanoma. The TGI in the assay on SN12K1 renal and in the assay on SNB-78 CNS was over 100 µM each time.
Consider `COc1ccc(/C=C2\CCNC2=O)cc1`, for which the TGI in the assay on P388 leukemia, in the assay with DMS 114 small cell lung, with DMS 273 small cell lung, with DLD-1 colon, in the assay with KM20L2 colon and with XF 498 CNS was over 100 µM each time. Besides, the TGI in the assay on M19-MEL melanoma, in the assay on SN12K1 renal and with SNB-78 CNS was over 100 µM each time.

The record behind these values is PubChem BioAssay (NCI).
